Measurements: patent US12655116B2, “Substituted isophthalic acid diamides” (Bayer Aktiengesellschaft, priority 2020, dated 2026)

Legend:
[1] = test system: AVEFA; assay: Pre-emergence herbicidal action against AVEFA; format: in vivo, Avena fatua; settings: Avena fatua, 504 h, pre-emergence
In short: (§1)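 Pre-emergence soil-surface spray of formulated compound (WP or EC; 600 to 800 l/ha; 0.2% wetting agent) over seeds sown in sandy loam. After 3 weeks under greenhouse conditions, damage is estimated visually in percent against untreated plants.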

[2] = test system: MATIN; assay: Post-emergence herbicidal action against MATIN; format: in vivo, Matricaria inodora; settings: Tripleurospermum inodorum, 504 h; for pest or weed control at 20 g/ha: dosage 20 g/ha
In short: (§2)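 Spray, one-leaf stage: WP or EC compound in water, 600–800 l/ha, 0.2% wetting agent. Plants held about 3 weeks in the greenhouse, then visually rated in percent of kill compared with untreated controls.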

[3] = test system: POLCO; assay: Pre-emergence herbicidal action against POLCO; format: in vivo, Polygonum convolvulus; settings: Fallopia convolvulus, 504 h
In short: as §1

[4] = test system: ECHCG; assay: Post-emergence herbicidal action against ECHCG; format: in vivo, Echinochloa crus-galli; settings: Echinochloa crus-galli, 504 h; for pest or weed control at 20 g/ha: dosage 20 g/ha
In short: as §2

[5] = test system: AVEFA; assay: Post-emergence herbicidal action against AVEFA; format: in vivo, Avena fatua; settings: Avena fatua, 504 h, visual assessment about 3 weeks after treatment, 100% = plants have died, 0% = like control plants
In short: as §2

[6] = test system: AMARE; assay: Post-emergence herbicidal action against AMARE; format: in vivo, Amaranthus retroflexus; settings: Amaranthus retroflexus, 504 h, visual assessment about 3 weeks after treatment, 100% = plants have died, 0% = like control plants
In short: as §2

[7] = test system: LOLRI; assay: Post-emergence herbicidal action against LOLRI; format: in vivo, Lolium rigidum; settings: Lolium rigidum, 504 h
In short: as §2

[8] = test system: HORMU; assay: Pre-emergence herbicidal action against HORMU; format: in vivo, Hordeum murinum; settings: Hordeum murinum, 504 h, pre-emergence
In short: as §1

[9] = test system: LOLRI; assay: Pre-emergence herbicidal action against LOLRI; format: in vivo, Lolium rigidum; settings: Lolium rigidum, 504 h
In short: as §1

[10] = test system: ECHCG; assay: Pre-emergence herbicidal action against ECHCG; format: in vivo, Echinochloa crus-galli; settings: Echinochloa crus-galli, 504 h
In short: as §1

[11] = test system: VIOTR; assay: Post-emergence herbicidal action against VIOTR; format: in vivo, Viola tricolor; settings: Viola tricolor, 504 h
In short: as §2

[12] = test system: STEME; assay: Post-emergence herbicidal action against STEME; format: in vivo, Stellaria media; settings: Stellaria media, 504 h
In short: as §2

[13] = test system: MATIN; assay: Pre-emergence herbicidal action against MATIN; format: in vivo, Matricaria inodora; settings: Tripleurospermum inodorum, 504 h; for pest or weed control at 80 g/ha: dosage 80 g/ha
In short: as §1

[14] = test system: ABUTH; assay: Pre-emergence herbicidal action against ABUTH; format: in vivo, Abutilon theophrasti; settings: Abutilon theophrasti, 504 h; for pest or weed control at 80 g/ha: scored visually after 3 weeks vs untreated controls (100% = plants have died, 0% = like control plants)
In short: as §1

[15] = test system: HORMU; assay: Post-emergence herbicidal action against HORMU; format: in vivo, Hordeum murinum; settings: Hordeum murinum, 504 h; for pest or weed control at 20 g/ha: dosage 20 g/ha
In short: as §2

[16] = test system: VERPE; assay: Pre-emergence herbicidal action against VERPE; format: in vivo, Veronica persica; settings: Veronica persica, 504 h
In short: as §1

[17] = test system: ALOMY; assay: Post-emergence herbicidal action against ALOMY; format: in vivo, Alopecurus myosuroides; settings: Alopecurus myosuroides, 504 h, visual assessment about 3 weeks after treatment vs untreated controls
In short: as §2

[18] = test system: VERPE; assay: Post-emergence herbicidal action against VERPE; format: in vivo, Veronica persica; settings: Veronica persica, 504 h
In short: as §2

[19] = test system: ABUTH; assay: Post-emergence herbicidal action against ABUTH; format: in vivo, Abutilon theophrasti; settings: Abutilon theophrasti, 504 h, visual assessment about 3 weeks after treatment vs untreated controls; for pest or weed control at 20 g/ha: dosage 20 g/ha
In short: as §2

[20] = test system: STEME; assay: Pre-emergence herbicidal action against STEME; format: in vivo, Stellaria media; settings: Stellaria media, 504 h; for pest or weed control at 80 g/ha: dosage 80 g/ha
In short: as §1

[21] = test system: POLCO; assay: Post-emergence herbicidal action against POLCO; format: in vivo, Polygonum convolvulus; settings: Fallopia convolvulus, 504 h, dosage 80 g/ha
In short: as §2

[22] = test system: SETVI; assay: Post-emergence herbicidal action against SETVI; format: in vivo, Setaria viridis; settings: Setaria viridis, 504 h
In short: as §2

[23] = test system: PHBPU; assay: Post-emergence herbicidal action against PHBPU; format: in vivo, Pharbitis purpurea; settings: Ipomoea purpurea, 504 h, dosage 20 g/ha
In short: as §2

SMILES: CCNC(=O)c1c(C(F)(F)F)ccc(C(=O)Nc2nnnn2CC)c1SC [Example 2-82]
- pest or weed control at 80 g/ha [1]: 100%
- pest or weed control at 320 g/ha ([1]; 320 g/ha, scored visually after 3 weeks, 100% = plants have died, 0% = like control plants): 100%
- pest or weed control at 20 g/ha [2]: 90%
- pest or weed control at 80 g/ha ([2]; dosage 80 g/ha): 90%
- pest or weed control at 320 g/ha ([3]; dosage 320 g/ha): 90%
- pest or weed control at 20 g/ha [4]: 80%
- pest or weed control at 80 g/ha ([4]; dosage 80 g/ha): 80%
- pest or weed control at 20 g/ha [5]: 90%
- pest or weed control at 80 g/ha ([5]; 80 g/ha): 90%
- pest or weed control at 20 g/ha [6]: 90%
- pest or weed control at 80 g/ha ([6]; 80 g/ha): 90%
- pest or weed control at 80 g/ha ([7]; dosage 80 g/ha): 90%
- pest or weed control at 80 g/ha [8]: 80%
- pest or weed control at 320 g/ha ([8]; 320 g/ha): 100%
- pest or weed control at 320 g/ha ([9]; 320 g/ha): 90%
- pest or weed control at 80 g/ha [10]: 100%
- pest or weed control at 320 g/ha ([10]; 320 g/ha): 100%
- pest or weed control at 20 g/ha [11]: 80%
- pest or weed control at 80 g/ha ([11]; 80 g/ha): 80%
- pest or weed control at 20 g/ha [12]: 80%
- pest or weed control at 80 g/ha ([12]; 80 g/ha): 90%
- pest or weed control at 80 g/ha [13]: 100%
- pest or weed control at 320 g/ha ([13]; dosage 320 g/ha): 100%
- pest or weed control at 80 g/ha [14]: 100%
- pest or weed control at 320 g/ha ([14]; Dosage: 320 g/ha, scored visually after 3 weeks, 100% = plants have died, 0% = like control plants): 100%
- pest or weed control at 20 g/ha [15]: 80%
- pest or weed control at 80 g/ha ([15]; dosage 80 g/ha): 90%
- pest or weed control at 320 g/ha ([16]; dosage 320 g/ha): 90%
- pest or weed control at 80 g/ha ([17]; dosage 80 g/ha): 90%
- pest or weed control at 20 g/ha [18]: 80%
- pest or weed control at 80 g/ha ([18]; 80 g/ha): 90%
- pest or weed control at 20 g/ha [19]: 90%
- pest or weed control at 80 g/ha ([19]; dosage 80 g/ha): 90%
- pest or weed control at 80 g/ha [20]: 100%
- pest or weed control at 320 g/ha ([20]; dosage 320 g/ha): 100%
- pest or weed control at 80 g/ha [21]: 80%

SMILES: CCn1nnnc1NC(=O)c1ccc(C(F)(F)F)c(C(=O)NC2CC2)c1C [Example 2-27]
- pest or weed control at 5 g/ha ([22]; dosage 5 g/ha): 80%
- pest or weed control at 20 g/ha ([22]; dosage 20 g/ha): 100%
- pest or weed control at 80 g/ha [1]: 100%
- pest or weed control at 20 g/ha ([1]; 20 g/ha, scored visually after 3 weeks, 100% = plants have died, 0% = like control plants): 80%
- pest or weed control at 5 g/ha ([2]; dosage 5 g/ha): 100%
- pest or weed control at 20 g/ha [2]: 100%
- pest or weed control at 20 g/ha ([3]; dosage 20 g/ha): 80%
- pest or weed control at 80 g/ha ([3]; dosage 80 g/ha): 100%
- pest or weed control at 5 g/ha ([4]; dosage 5 g/ha): 80%
- pest or weed control at 20 g/ha [4]: 100%
- pest or weed control at 5 g/ha ([5]; 5 g/ha): 90%
- pest or weed control at 20 g/ha [5]: 100%
- pest or weed control at 20 g/ha [6]: 100%
- pest or weed control at 20 g/ha ([7]; dosage 20 g/ha): 80%
- pest or weed control at 80 g/ha [8]: 90%
- pest or weed control at 80 g/ha ([9]; 80 g/ha): 80%
- pest or weed control at 20 g/ha ([10]; 20 g/ha): 90%
- pest or weed control at 80 g/ha [10]: 100%
- pest or weed control at 5 g/ha ([11]; 5 g/ha): 100%
- pest or weed control at 20 g/ha [11]: 100%
- pest or weed control at 20 g/ha [23]: 90%
- pest or weed control at 20 g/ha [12]: 100%
- pest or weed control at 5 g/ha ([12]; dosage 5 g/ha): 100%
- pest or weed control at 20 g/ha ([13]; dosage 20 g/ha): 100%
- pest or weed control at 80 g/ha [13]: 100%
- pest or weed control at 80 g/ha [14]: 100%
- pest or weed control at 20 g/ha ([14]; dosage 20 g/ha, scored visually after 3 weeks vs untreated controls, 100% = plants have died, 0% = like control plants, read-out: Pre-emergence action against ABUTH (herbicidal activity in percent)): 100%
- pest or weed control at 20 g/ha [15]: 90%
- pest or weed control at 20 g/ha ([16]; dosage 20 g/ha): 80%
- pest or weed control at 80 g/ha ([16]; dosage 80 g/ha): 100%
- pest or weed control at 5 g/ha ([17]; dosage 5 g/ha): 80%
- pest or weed control at 20 g/ha ([17]; dosage 20 g/ha): 90%
- pest or weed control at 20 g/ha [18]: 80%
- pest or weed control at 5 g/ha ([19]; dosage 5 g/ha): 100%
- pest or weed control at 20 g/ha [19]: 100%
- pest or weed control at 20 g/ha ([20]; dosage 20 g/ha): 100%
- pest or weed control at 80 g/ha [20]: 100%
